Laboratory results reported in PubChem BioAssay AID1996.
In brackets after ≈: the same amount, converted by molar mass.

Conditions: buffer; pH 7.4; 200.0 µM

Structure (SMILES)	solubility kinetic
CC1CC(C)CN(C(=O)COC(=O)c2ccc3c(c2)OCO3)C1 (stereo not given)	47 µg/mL (≈ 147 µM)
Cc1ccccc1NC(=O)Nc1ccc2c(c1)OCO2	0.5 µg/mL (≈ 1.85 µM)
Cc1ccccc1NC(=O)COC(=O)c1cccnc1	> 40.5 µg/mL
CC1CCCCC1NC(=O)Cn1cc([N+](=O)[O-])ccc1=O (stereo not given)	29.1 µg/mL (≈ 99.2 µM)
CCc1nc2ccccc2n1CC(O)COCC1CC=CCC1 (stereo not given)	> 47.2 µg/mL
COc1ccccc1C(=O)NC(=O)COC(=O)C1CC1	> 41.6 µg/mL
O=C(COC(=O)C1COc2ccccc2O1)NC1CCCCC1 (stereo not given)	> 47.9 µg/mL
O=C(NC1CCCCC1)Oc1cc2oc(=O)sc2cc1Cl	10.1 µg/mL (≈ 30.8 µM)
O=C(CNC1CCCCC1)Nc1cccc([N+](=O)[O-])c1	31.4 µg/mL (≈ 113 µM)
COc1ccc(NC(=O)NC2CCCc3ccccc32)cc1OC (stereo not given)	1.1 µg/mL (≈ 3.37 µM)
COc1cc(CC(=O)OCC(=O)c2ccc[nH]2)cc(OC)c1OC	> 50 µg/mL
Brc1cnc2nc(SCc3nc4ccccc4[nH]3)[nH]c2c1	1.2 µg/mL (≈ 3.33 µM)
OCCN1CCOCCOc2ccccc2OCCOCC1	> 46.7 µg/mL
CCN(CC(=O)N1CCCC1)S(=O)(=O)c1ccccc1	> 44.5 µg/mL
CCn1c([N+](=O)[O-])nc2c1c(=O)[nH]c(=O)n2C	> 35.9 µg/mL
CC(=O)Nc1ccc(C23CC4CC(CC(C4)C2)C3)cc1	0.8 µg/mL (≈ 2.97 µM)
O=C(Nc1ccc(OC(F)(F)F)cc1)c1cnccn1	11.3 µg/mL (≈ 39.9 µM)
Cl.c1ccc2c(c1)CN1CCCC1=N2	> 31.3 µg/mL
COc1cc(Cl)c(S(=O)(=O)N2CCCC2)cc1Cl	42.1 µg/mL (≈ 136 µM)
O=C(NCCCc1ccccc1)C1CC1	> 30.5 µg/mL
COC(=O)c1c(NC(C)=O)csc1C	29.2 µg/mL (≈ 137 µM)
COc1ccc(C(=O)OCC(=O)NCCN2C(=O)CSC2=O)cc1[N+](=O)[O-]	> 59.6 µg/mL
CN1CC(=O)N(CC(=O)Nc2ccc(OCc3ccccc3)cc2)C1=O	45.7 µg/mL (≈ 129 µM)
FC(F)(F)c1ccnc(Oc2ccc(C3=NCCS3)cc2)c1	2.2 µg/mL (≈ 6.78 µM)

Structure (SMILES)	solubility kinetic
CN(CC(=O)Nc1ccc(F)c(F)c1F)C(=O)C1COc2ccccc2O1 (stereo not given)	> 57 µg/mL
Cc1c(O)nc2ccccn2c1=O	> 26.4 µg/mL
CCCNCC(=O)Nc1cccc(S(=O)(=O)NC2=NCCCCC2)c1.O=C(O)C(=O)O	> 68.5 µg/mL
CC[N+](C)(C)c1cccc(O)c1.[Cl-]	> 30.3 µg/mL
Cc1ccc(C(=O)CCC(=O)Nc2cccc(C)c2)cc1	< 0.6 µg/mL
CN(C)CCCN(Cc1ccc2c(c1)OCO2)C(=O)NC1CCCCC1	> 54.2 µg/mL
Cc1cc(C)cc(OCC(=O)N2CCc3ccccc3C2)c1	31.5 µg/mL (≈ 107 µM)
CCOc1ccc2[nH]c(SCC(=O)OC)c([N+](=O)[O-])c2c1	19.1 µg/mL (≈ 61.5 µM)
CCCC1(c2ccccc2)NC(=O)N(CC(=O)Nc2ccc(N3CCOCC3)cc2)C1=O (stereo not given)	> 65.5 µg/mL
Cc1ccc(C)c(NC(=O)c2cc3ccccc3o2)c1	10.9 µg/mL (≈ 41.1 µM)
Cc1ccc(Nc2nnc(SCC(=O)NCC3CCCO3)s2)cc1C (stereo not given)	> 56.8 µg/mL
Cc1ccc(CONC(=O)c2cccc(C)c2)cc1	38.2 µg/mL (≈ 150 µM)
COc1ccc(S(=O)(=O)N2CCOCC2)cc1NC(=O)CSc1nc(C)c(C)c(C)n1	8.5 µg/mL (≈ 18.2 µM)
Cc1nn(C)c(C)c1NS(=O)(=O)c1ccc(N2CCCC2=O)cc1	> 52.3 µg/mL
Cc1c(Cl)cccc1-n1cnc(=O)c2ccccc21	> 40.6 µg/mL
Cc1ccc2nc(SCC(=O)Nc3nonc3C)[nH]c2c1	> 45.5 µg/mL
O=C(NCCc1ccc2c(c1)OCCO2)c1ccccn1	> 42.6 µg/mL
Cc1cccc(N2CCN(C(=O)c3ccc4nccnc4c3)CC2C)c1 (stereo not given)	> 52 µg/mL
Cc1cc(Cl)ccc1OC(C)C(=O)OCC(=O)c1ccc[nH]1 (stereo not given)	4 µg/mL (≈ 12.4 µM)
CN1CCc2c(sc(NC(=O)Cc3ccc(F)cc3)c2C(N)=O)C1.Cl	52.6 µg/mL
COC(=O)c1scc(S(=O)(=O)C(C)(C)C)c1N	26 µg/mL (≈ 93.7 µM)
Cc1ccccc1NC(=O)CSc1nnc(-c2ccccn2)o1	> 49 µg/mL
S=C1SCN(Cc2cccnc2)CN1Cc1ccccc1	38.9 µg/mL (≈ 123 µM)
Nc1ccccc1C(=O)NC1CCCNC1=O (stereo not given)	> 35 µg/mL

Structure (SMILES)	solubility kinetic
Nc1c(Cl)ncnc1NCC(O)CO (stereo not given)	> 32.8 µg/mL
CCOc1ccc(C(=O)CCC(=O)Nc2ccccc2C)cc1	4.6 µg/mL (≈ 14.8 µM)
CCOC(=O)C1CCN(C(=S)NC2CC3C=CC2C3)CC1 (stereo not given)	> 46.3 µg/mL
O=c1[nH]c(=S)[nH]c2scc(-c3ccc(Br)cc3)c12	9.1 µg/mL (≈ 26.8 µM)
CC(CN1CCCC1)OC(=O)Cc1ccc(Cl)cc1.Cl (stereo not given)	> 47.7 µg/mL
O=[N+]([O-])c1ccc(COc2cccnc2)cc1	> 34.5 µg/mL
CC(C)(C)N(Cc1ccccc1)C(=O)COC(=O)c1ccc2ccccc2n1	3 µg/mL (≈ 7.97 µM)
COc1ccc(Cl)cc1NC(=S)N1CCCCCC1	42.7 µg/mL (≈ 143 µM)
Cc1cc(C)cc(Nc2ncnc3nc[nH]c23)c1	7.7 µg/mL (≈ 32.2 µM)
CC(=O)c1c(-c2ccc(C)cc2)nc2c3ccccc3ccn12	< 0.3 µg/mL
CCOC(=O)c1cc(C)n(-c2ccccc2)c1C	3 µg/mL (≈ 12.3 µM)
CCCC(=O)N/C(N)=N/c1nc(C)c2ccccc2n1	15.3 µg/mL (≈ 56.4 µM)
Cc1ccc(CN(C)c2ccc(S(=O)(=O)N3CCCC3)cn2)cc1	12.5 µg/mL (≈ 36.2 µM)
CCOC(=O)c1c(NC(=O)C2CCCO2)sc(C)c1C (stereo not given)	30 µg/mL (≈ 101 µM)
NC(=O)Cn1ccc(O)c(Cc2ccc(Cl)cc2Cl)c1=O	> 49.1 µg/mL
Cc1ccc(Cl)cc1NC(=O)COC(=O)CSc1ccccc1	7.2 µg/mL (≈ 20.6 µM)
Cc1cccc(OCC(=O)NCCCNC(=O)c2ccccn2)c1	45.4 µg/mL (≈ 139 µM)
Cc1ccsc1C(=O)NCc1ccccc1Cl	> 39.9 µg/mL
COc1ccc(N(C)C(=S)Nc2ccc3nc(C)c(C)nc3c2)cc1	4.1 µg/mL (≈ 11.6 µM)
Cc1ccc(S(=O)(=O)Nc2ccc(O)c3cccnc23)cc1	19 µg/mL (≈ 60.4 µM)
Cc1ncc(CSc2nccc(=O)[nH]2)c(CO)c1O	> 41.9 µg/mL
Cc1cccc(N=C2NC(=O)C(CO)(CO)S2)c1	22.4 µg/mL (≈ 84.1 µM)
COc1ccc(NS(=O)(=O)c2ccc(C(=O)N3CCCCCC3)cc2)cc1	> 58.3 µg/mL
O=C1NC(c2ccc(Cl)c([N+](=O)[O-])c2)Nc2ccccc21 (stereo not given)	7.7 µg/mL (≈ 25.4 µM)

Structure (SMILES)	solubility kinetic
C=CCOC(=O)C1=C(C)OC(N)=C(C#N)C1c1ccco1 (stereo not given)	9.6 µg/mL (≈ 33.5 µM)
N#Cc1ccsc1NC(=O)c1ccc(Cl)c([N+](=O)[O-])c1	2.9 µg/mL (≈ 9.42 µM)
Cc1ccc(NC(=O)CSc2nc3sc(C)cc3c(=O)n2C)cc1	< 0.3 µg/mL
CCCCn1c(N)c(N(CC)C(=O)CCNC(=O)c2ccc(Cl)cc2)c(=O)[nH]c1=O	> 65.4 µg/mL
COc1ccc(N2C(=O)c3ccccc3NC2(C)C)cc1	8.3 µg/mL (≈ 29.4 µM)
O=C(NCCS(=O)(=O)NC1CCCC1)c1ccccc1	> 44.5 µg/mL
O=C(Nc1ccc2c(c1)CCC2)c1cc(F)cc(F)c1	3.7 µg/mL (≈ 13.5 µM)
COc1cccc(-n2c(/C=C/c3ccccn3)nc3ccccc3c2=O)c1	0.5 µg/mL (≈ 1.41 µM)
N#Cc1cc2c(nc1S(=O)(=O)Cc1ccccc1)CCCC2	30.7 µg/mL (≈ 98.3 µM)
Nc1nc2c(ncn2C2C[C@H](O)[C@@H](CO)O2)c(=O)[nH]1 (stereo not given in full)	> 40.1 µg/mL
CC(C)CC(=O)Nc1ccc2c(c1)nc(CCN1CCCCC1)n2C	> 51.4 µg/mL
CCC(C(=O)Nc1ncc(C)s1)c1ccccc1 (stereo not given)	2.9 µg/mL (≈ 11.1 µM)
CCCCNC(=O)COCc1cc(-c2ccc3c(c2)OCO3)on1	19.5 µg/mL (≈ 58.7 µM)
Cc1nc([N+](=O)[O-])cn1CC(O)c1ccc(Cl)cc1 (stereo not given)	> 42.3 µg/mL
FC(F)(F)c1ccc(CSc2ccccn2)cc1	1.2 µg/mL (≈ 4.46 µM)
CSc1ccccc1NC(=O)c1ccccc1C	30.9 µg/mL (≈ 120 µM)
O=C(COC(=O)c1ccc(Cl)nc1)Nc1ccc2c(c1)OCO2	> 50.2 µg/mL
O=[N+]([O-])c1ncccc1OCc1ccccc1Br	5.7 µg/mL (≈ 18.4 µM)
O=C(Nc1ccc2c(c1)OCCO2)c1ccc(Cl)c(Cl)c1	< 0.7 µg/mL
Cc1ccc2nc(N3CCN(C)CC3)c(C=O)c(=O)n2c1	41.3 µg/mL (≈ 144 µM)
CC1CCCC(C)N1C(=O)COC(=O)c1ccc(S(=O)(=O)N(C)c2ccccc2)cc1 (stereo not given)	6.9 µg/mL (≈ 15.5 µM)
CCN(CC)S(=O)(=O)c1cccc(NC(=O)CC2CCCC2)c1	33 µg/mL (≈ 97.5 µM)
Cc1onc(-c2ccccc2)c1C(=O)N(C)CCc1ccccn1	> 48.2 µg/mL
O=C(CSc1ccccc1)Nc1ccc2c(c1)OCCO2	> 45.2 µg/mL

Structure (SMILES)	solubility kinetic
COC(=O)c1ccc(NC(=O)CNc2ccccc2)cc1	28.3 µg/mL (≈ 99.5 µM)
COc1ccc(N2CCN(CC(=O)NCc3ccc(Cl)cc3)CC2)cc1	2.2 µg/mL (≈ 5.88 µM)
CCOc1ccc(NS(=O)(=O)c2cc(NC(=O)C3CC3)ccc2C)cc1Br	3 µg/mL (≈ 6.62 µM)
COC(=O)c1ccccc1NC(=O)CSc1nncn1C	> 46 µg/mL
CCC(=O)Nc1ccc(S(=O)(=O)Nc2nccs2)cc1	45.5 µg/mL (≈ 146 µM)
CC(=O)c1cccc(Nc2cc(C)nc3c(C)cccc23)c1.Cl	> 49 µg/mL
Cc1ccccc1-c1nc2cc(Cl)ccc2c(=O)o1	< 0.6 µg/mL
Nc1ccccc1SCCS(=O)(=O)c1ccc(Cl)cc1	2.2 µg/mL (≈ 6.71 µM)
O=C(COC(=O)c1cccc2ccccc12)NCC1CCCO1 (stereo not given)	> 47 µg/mL
S=C(c1ccc(-c2ccc(Cl)cc2Cl)o1)N1CCCC1	< 0.7 µg/mL
CC1CC(C)CN(S(=O)(=O)c2cccc3nonc23)C1 (stereo not given)	5.5 µg/mL (≈ 18.6 µM)
CCOC(=O)N1CCN(C(=O)c2ccc(S(=O)(=O)Nc3ccc(C)cc3)cc2)CC1	> 64.7 µg/mL
COC(=O)C(Cc1c[nH]c2ccccc12)N1CCS(=O)(=O)CC1 (stereo not given)	> 50.5 µg/mL
COc1ccc(C(=O)N[C@H](C(=O)NCCc2ccc3c(c2)OCCO3)C(C)C)cc1	19.7 µg/mL (≈ 47.8 µM)
CC(C)=CC(=O)Nc1ccc(S(=O)(=O)Nc2onc(C)c2C)cc1	> 52.4 µg/mL
Cc1cccnc1NC(=O)Nc1ccccc1	4.1 µg/mL (≈ 18 µM)
COc1ccc2nc3c(nc2c1)CCCC3	> 32.1 µg/mL
O=C(CSc1nc(C2CC2)nc2ccccc12)N1CCCCC1	46.9 µg/mL (≈ 143 µM)
O=C(COC(=O)C1CCCC1)NCc1ccc(Cl)cc1	> 44.4 µg/mL
CCN(CC)CCCNc1ncnc2scc(-c3ccc(F)cc3)c12	> 53.8 µg/mL
CC(C)C(Nc1ccc(C(F)(F)F)cc1[N+](=O)[O-])C(=O)O (stereo not given)	> 45.9 µg/mL
CCCN(CC(=O)Nc1ccccc1OC)C(=O)c1ccncc1	> 49.1 µg/mL
CCOC(=O)c1c(C)[nH]c(C(=O)COC(=O)C2CC2)c1C	7.8 µg/mL (≈ 26.6 µM)
CC1=CC(C)(C)N(C(=O)CN2C(=O)CCC2=O)c2ccc(C)cc21	> 49 µg/mL
